Test results reported in US20240140986A1, “SYNTHETIC URSOLIC ACID DERIVATIVES AND METHODS OF USE THEREOF” (REATA PHARMACEUTICALS, INC., priority 2021, published 2024).
Like-named read-outs stand apart in the source and are kept apart here.

Key:
[1] = tested on: IFNγ-induced NO production in RAW 264.7 cells; assay: Nitric Oxide Suppression Assay (IFNγ-induced NO, Griess nitrite readout); assay type: cell-based, mouse; settings: for IC50: Mus musculus, read-out: Avg NO IC50 (nM) (Mean ± SD); for Avg NO IC50 Relative to RTA402 (fold): Table 2, ratio to RTA402
Outline: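 RAW 264.7 mouse macrophages in RPMI 1640 with 0.5% FBS were pretreated 2 h with compound (0.1% DMSO final), then stimulated with 20 ng/mL IFNγ for 24 h at 37° C. Supernatant nitrite was read by Griess absorbance at 525 nm against a nitrite standard curve, normalized to DMSO-IFNγ wells; IC50 from curve fit. Viability by WST-1.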

[2] = tested on: Nrf2 / ARE-dependent luciferase in AREc32 reporter cell line; assay: AREc32 luciferase reporter activation (Nrf2 induction); assay type: cell-based, human; settings: for EC (2-fold): Homo sapiens, Arec32; for Relative Avg AREc32 EC2X Relative to RTA402 (fold): ratio to RTA402
Outline: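 EC2X is the concentration raising luminescence 2-fold above DMSO-treated cells, from a nonlinear-regression dose–response fit. Compounds (0.03–1000 nM) were applied for nineteen hours, starting one day after seeding 20,000 reporter cells per well. Luciferase was read with One-Glo reagent.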

[3] = RAW264.7, Table 2, RAW 264.7 cells, 2 h pretreatment, 20 ng/mL interferon gamma 24 h
[4] = Table 2, concentration increasing luminescence 2-fold above vehicle, 19 h treatment, read-out: Avg AREc32 EC2X (nM) (Mean ± SD)
[5] = RAW264.7, Table 3, ursolic acid derivatives
[6] = Table 3, ursolic acid derivatives, read-out: Avg ARE EC-2X (nM) (Mean ± SD)

SMILES	IC50 [1, 3]	Avg NO IC50 Relative to RTA402 (fold) [1]	EC (2-fold) [2, 4]	Relative Avg AREc32 EC2X Relative to RTA402 (fold) ([2]; Table 2)	IC50 [1, 5]	EC (2-fold) [2, 6]
C[C@@H]1[C@H]2[C@H]3C(=O)C=C4[C@@]5(C)C=C(C#N)C(=O)C(C)(C)[C@@H]5CC[C@@]4(C)[C@]3(C)CC[C@@]2(CN(C)C(=O)C(C)(F)F)CC[C@H]1C [Compound T38]	39.2 ± 4.2 nM	9.52 ± 1.82 fold	34.5 ± 7.6 nM	2.76 ± 0.32 fold	–	–
C[C@@H]1[C@H]2[C@H]3C(=O)C=C4[C@@]5(C)C=C(C#N)C(=O)C(C)(C)[C@@H]5CC[C@@]4(C)[C@]3(C)CC[C@@]2(CN(C)C(=O)C(F)F)CC[C@H]1C [Compound T39]	10.4 ± 2.6 nM	3.38 ± 0.68 fold	9.58 ± 2.31 nM	0.799 ± 0.095 fold	–	–
C[C@@H]1[C@H]2[C@H]3C(=O)C=C4[C@@]5(C)C=C(C#N)C(=O)C(C)(C)[C@@H]5CC[C@@]4(C)[C@]3(C)CC[C@@]2(CNCCO)CC[C@H]1C [Compound T40]	25.8 ± 9.3 nM	9.8 ± 5.7 fold	16.1 ± 1.5 nM	1.2 ± 0.2 fold	25.8 ± 9.3 nM	16.1 ± 1.5 nM
C[C@@H]1[C@H]2[C@H]3C(=O)C=C4[C@@]5(C)C=C(C#N)C(=O)C(C)(C)[C@@H]5CC[C@@]4(C)[C@]3(C)CC[C@@]2(CN2CCOC2=O)CC[C@H]1C [Compound T41]	5.41 ± 2.52 nM	1.79 ± 0.77 fold	4.73 ± 2.12 nM	0.354 ± 0.155 fold	5.41 ± 2.52 nM	4.73 ± 2.12 nM
C[C@@H]1[C@H]2[C@H]3C(=O)C=C4[C@@]5(C)C=C(C#N)C(=O)C(C)(C)[C@@H]5CC[C@@]4(C)[C@]3(C)CC[C@@]2(CN2CCOC2)CC[C@H]1C [Compound T42]	38.2 ± 10 nM	14.80 ± 6.91 fold	26.3 ± 6 nM	2.43 ± 0.39 fold	38.2 ± 10 nM	26.3 ± 6 nM
CC(=O)OCCNC[C@]12CC[C@@H](C)[C@H](C)[C@H]1[C@H]1C(=O)C=C3[C@@]4(C)C=C(C#N)C(=O)C(C)(C)[C@@H]4CC[C@@]3(C)[C@]1(C)CC2 [Compound T43]	15.9 ± 7 nM	5.93 ± 3.56 fold	10.1 ± 1 nM	0.8 ± 0.1 fold	–	–
C[C@@H]1[C@H]2[C@H]3C(=O)C=C4[C@@]5(C)C=C(C#N)C(=O)C(C)(C)[C@@H]5CC[C@@]4(C)[C@]3(C)CC[C@@]2(CN2CCN(C)C2=O)CC[C@H]1C [Compound T44]	5.53 ± 1.8 nM	2.03 ± 0.67 fold	5.73 ± 1.79 nM	0.53 ± 0.13 fold	5.5 ± 1.8 nM	5.73 ± 1.79 nM
C[C@@H]1[C@H]2[C@H]3C(=O)C=C4[C@@]5(C)C=C(C#N)C(=O)C(C)(C)[C@@H]5CC[C@@]4(C)[C@]3(C)CC[C@@]2(CN2CCNC2=O)CC[C@H]1C [Compound T45]	8.79 ± 2.72 nM	3.22 ± 0.99 fold	6.14 ± 1.47 nM	0.563 ± 0.065 fold	–	–
C[C@@H]1[C@H]2[C@H]3C(=O)C=C4[C@@]5(C)C=C(C#N)C(=O)C(C)(C)[C@@H]5CC[C@@]4(C)[C@]3(C)CC[C@@]2(Cn2cccn2)CC[C@H]1C [Compound T46]	32.6 ± 2.2 nM	8.4 ± 2.7 fold	24.1 ± 6.7 nM	2.06 ± 0.26 fold	–	–
C[C@@H]1[C@H]2[C@H]3C(=O)C=C4[C@@]5(C)C=C(C#N)C(=O)C(C)(C)[C@@H]5CC[C@@]4(C)[C@]3(C)CC[C@@]2(Cn2cncn2)CC[C@H]1C [Compound T47]	8.19 ± 2 nM	2.70 ± 0.52 fold	7.08 ± 1.2 nM	0.573 ± 0.139 fold	8.19 ± 2 nM	7.1 ± 1.2 nM
C[C@H]1[C@H](C)CC[C@]2(Cn3cncn3)CC[C@]3(C)C(O)(C(=O)C=C4[C@@]5(C)C=C(C#N)C(=O)C(C)(C)[C@@H]5CC[C@]43C)[C@H]12 (stereo partly drawn) [Compound T48]	13.8 ± 1.5 nM	3.66 ± 1.49 fold	7.18 ± 1.2 nM	0.602 ± 0.010 fold	–	–
Cc1cn(C[C@]23CC[C@@H](C)[C@H](C)[C@H]2[C@H]2C(=O)C=C4[C@@]5(C)C=C(C#N)C(=O)C(C)(C)[C@@H]5CC[C@@]4(C)[C@]2(C)CC3)nn1 [Compound T49]	11.5 ± 2.6 nM	3.77 ± 0.33 fold	7.97 ± 0.73 nM	0.643 ± 0.116 fold	11.5 ± 2.6 nM	7.97 ± 0.73 nM
